Data from patent US9388122B2, “Radioactive tyrosine derivative, method for producing same, labeling agent for positron imaging and medical agent for assessing grade of malignancy of tumor respectively composed of radioactive tyrosine derivative, and method for detecting tumor” (priority 2004, dated 2016).
Entries after “also recorded” stand apart in the source; their conditions may differ.

How the values were obtained:
[1] = test system: HeLa; assay: Planar measurement in cancer-bearing mice; settings: 2.5 MBq tail vein, 60 minutes measurement; for accumulation in the tumor site (planar imaging): PPIS-4800; for accumulation in the normal tissues (planar imaging): compared with tumor site
Protocol: Measurement was performed (1 minute×60 frames) for 60 minutes immediately after the compound administration by use of a planar imaging system (PPIS-4800 manufactured by Hamamatsu Photonics K. K.) and indicated by images each comprising 10 frames integrated.

[2] = test system: Human cervical cancer HeLa cells (cell strain: 15S3D); assay: Measurement of organ distribution in cancer-bearing mice; settings: 1 hour after administration; for accumulation in the tumor, SUV (organ)/SUV (blood) / accumulation in the normal tissues, SUV (organ)/SUV (blood) / SUV (organ: tumor)/SUV (blood), D-form compared with L-form: HeLa-transplanted nude mice, tail vein; for accumulation in the tumor, SUV (organ)/SUV (blood): 10 MBq (11C) or 1 MBq (18F), gamma counter; for specificity of accumulation to tumor: from SUV (organ)/SUV (blood) of the organs; for ratio of accumulation to the pancreas to accumulation to the tumor indicated by SUV (organ)/SUV (blood): D-form compared with L-form
Protocol: Human cervical cancer HeLa cells (cell strain: 15S3D) were subcutaneously transplanted at 5×10^6 cells/mouse to the thighs of 7-week-old nude mice (BALB/cA Jcl-nu, Clea Japan, Inc). […] After 1 hour of the administration, the mice were decapitated to collect each organ (blood, heart, lung, liver, kidney, spleen, muscle, bone, small intestine, gastrointestinal tract, pancreas, brain, and tumor). The radioactivity of each organ was measured with an automatic gamma counter, and the weight of each organ was measured. SUV (standardized uptake value) that served as an index of the accumulating amounts of the administered compounds was determined. Furthermore, to correct the accumulating amounts, SUV (organ)/SUV (blood) was determined by dividing the SUV of each organ by the SUV of blood.

[3] = test system: HeLa-K (cell strain: 15S3D) and HeLa-B (JCRB9004); assay: Relationship between tumor proliferation rate and degree of accumulation of labeled compound for positron imaging; format: in vivo, nude mice (BALB/cA Jcl-nu)
From the text: HeLa-K (cell strain: 15S3D) and HeLa-B (Health Science Research Resources Bank: JCRB9004) were subcutaneously transplanted at 5×10^6 cells/mouse and 2×10^7 cells/mouse, respectively, to the thighs of female BALB/cA Jcl-nu nude mice (HeLa-K: 7-week-old mice, HeLa-B: 5-week-old mice). The HeLa-K- and HeLa-B-transplanted mice, when becoming 9 week old after 2 weeks and 4 weeks of the transplantation, respectively, were used in the experiment. To examine the relationship between the accumulation of each labeled compound in the cancer-bearing mice and the proliferation rate of the tumor tissue, tumor size was daily measured. Doubling time (DT) was calculated according to the calculation formula: DT=t×log2 (V1/V0) proposed by Schwartz, wherein t denotes the number of days required for the tumor volume to reach V1 (mm^3) from V0 (mm^3), and the volume (mm^3) was calculated according to ½×length (mm)×width^2 (mm^2) from the major axis of the tumor. FIG. 7 is a graph showing the relationship between the number of days elapsed after HeLa transplantation and tumor volumes. […] The doubling times of HeLa-K and HeLa-B calculated from FIG. 7 were 4.4 days and 11.0 days, respectively.
The HeLa-K- and HeLa-B-transplanted nude mice were administered through the tail veins with [^18F]FDG, [^11C]choline, [^18F]FLT, L- and D-[^11C]Met, and L- and D-[^11C]MT at 1 MBq ([^18F]FDG and [^18F]FLT) or 10 MBq ([^11C]choline, L- and D-[^11C]Met, and L- and D-[^11C]MT). […] The radioactivities of the blood and tumor were measured with an automatic gamma counter, their weights were measured, and SUV was determined.
HeLa-K- and HeLa-B-transplanted nude mice were administered through the tail veins with L- and D-[^11C]ET, L- and D-[^18F]FMT, L-and D-[^18F]FET, and L- and D-[^18F]FPT at 10 MBq (L- and D-[^11C]ET) or 1 MBq (the others). […] The radioactivities of the blood and tumor were measured with an automatic gamma counter, their weights were measured, and SUV was determined.

[4] = test system: cancer cells; settings: cited from earlier work
[5] = test system: tumor tissues; settings: in vivo; cited from earlier work
[6] = HeLa-K versus HeLa-B tumors, SUV (organ)/SUV (blood), 1 hour after administration

| Compound | accumulation in the tumor site (planar imaging) [1] | accumulation in the tumor, SUV (organ)/SUV (blood) [2] | accumulation in the normal tissues, SUV (organ)/SUV (blood) [2] | specificity of accumulation to tumor [2] | ratio of accumulation to the pancreas to accumulation to the tumor indicated by SUV (organ)/SUV (blood) [2] | also measured |
| --- | --- | --- | --- | --- | --- | --- |
| [11CH3]Oc1ccc(C[C@H](N)C(=O)O)cc1 [L-[^11C]MT, O—[^11C]methyl-L-tyrosine, reference compound] | observed in the tumor site | observed in the tumor | low in the normal tissues except for the pancreas | specific to the tumor |  |  |
| C[11CH2]Oc1ccc(C[C@@H](N)C(=O)O)cc1 [D-[^11C]ET, O—[^11C]ethyl-D-tyrosine] |  | observed in the tumor | low in the normal tissues except for the pancreas | specific to the tumor | lower in the D-form than in the L-form |  |
| N[C@@H](Cc1ccc(OCCC[18F])cc1)C(=O)O [L-[^18F]FPT, O—[^18F]Fluoropropyl-L-tyrosine, reference compound] |  | observed in the tumor | low in the normal tissues except for the pancreas and bone | specific to the tumor |  |  |
| [11CH3]SCC[C@H](N)C(=O)O [L-[^11C]Met, L-[^11C]methionine, reference compound] | observed in the tumor site | observed in the tumor | also high in the normal tissues | low specificity to tumor |  | difference in the degree of accumulation depending on the difference in proliferation rate ([3]; mouse, in vivo): not detected; accumulation in the normal tissues (planar imaging) [1]: significantly stronger in the normal tissues |
| N[C@@H](Cc1ccc(OCC[18F])cc1)C(=O)O [L-[^18F]FET, O—[^18F]Fluoroethyl-L-tyrosine, reference compound] |  | observed in the tumor | low in the normal tissues except for the pancreas | specific to the tumor |  |  |
| [^18F]-2-fluoro-2-deoxy-D-glucose [[^18F]FDG, reference compound] |  |  |  |  |  | difference in the degree of accumulation depending on the difference in proliferation rate ([3]; mouse, in vivo): not detected |
| [11CH3]SCC[C@@H](N)C(=O)O [D-[^11C]Met, reference compound] | observed in the tumor site | observed in the tumor | also high in the normal tissues | low specificity to tumor |  | accumulation in the normal tissues (planar imaging) [1]: significantly stronger in the normal tissues |
| N[C@H](Cc1ccc(OC[18F])cc1)C(=O)O [D-[^18F]FMT, O—[^18F]fluoromethyl-D-tyrosine] | observed in the tumor site |  |  | particularly high specificity to the tumor |  | difference in the degree of accumulation depending on the difference in proliferation rate [3, 6]: remarkably large as compared with L-[^18F]FMT; tumor-specific accumulation, D-form compared with L-form (planar imaging) [1]: accumulate in a manner specific to the tumor as compared with the L-form; SUV (organ: tumor)/SUV (blood), D-form compared with L-form [2]: higher value of SUV (organ: tumor)/SUV (blood) than the L-form |
| [11CH3]Oc1ccc(C[C@@H](N)C(=O)O)cc1 [D-[^11C]MT, O—[^11C]methyl-D-tyrosine] | observed in the tumor site | observed in the tumor | low in the normal tissues except for the pancreas | specific to the tumor | lower in the D-form than in the L-form | accumulation in tumor, SUV (organ)/SUV (blood), HeLa-K versus HeLa-B ([3]; HeLa-K doubling time 4.4 days, HeLa-B 11.0 days, tail vein, 1 hour after administration): accumulated more in HeLa-K exhibiting faster proliferation; difference in the degree of accumulation depending on the difference in proliferation rate [3, 6]: remarkably large; tumor-specific accumulation, D-form compared with L-form (planar imaging) [1]: accumulate in a manner specific to the tumor as compared with the L-form; SUV (organ: tumor)/SUV (blood), D-form compared with L-form [2]: higher value of SUV (organ: tumor)/SUV (blood) than the L-form |
| N[C@@H](Cc1ccc(OC[18F])cc1)C(=O)O [L-[^18F]FMT, O—[^18F]fluoromethyl-L-tyrosine] | observed in the tumor site |  |  |  |  |  |
| N[C@H](Cc1ccc(OCCC[18F])cc1)C(=O)O [D-[^18F]FPT, O—[^18F]fluoropropyl-D-tyrosine] |  | observed in the tumor | low in the normal tissues except for the pancreas and bone | specific to the tumor | lower in the D-form than in the L-form |  |
| C[11CH2]Oc1ccc(C[C@H](N)C(=O)O)cc1 [L-[^11C]ET, O—[^11C]Ethyl-L-tyrosine, reference compound] |  | observed in the tumor | low in the normal tissues except for the pancreas | specific to the tumor |  |  |
| N[C@H](Cc1ccc(OCC[18F])cc1)C(=O)O [D-[^18F]FET, O—[^18F]fluoroethyl-D-tyrosine] |  | observed in the tumor | low in the normal tissues except for the pancreas | specific to the tumor; also recorded: particularly high specificity to the tumor | lower in the D-form than in the L-form | uptake to cancer cells [4]: low uptake to cancer cells; SUV (organ: tumor)/SUV (blood), D-form compared with L-form [2]: higher value of SUV (organ: tumor)/SUV (blood) than the L-form; accumulation in tumor tissues [5]: does not accumulate in tumor tissues |
